What was measured:
[1] = tested on: keratinocyte-melanocyte co-cultures (Human HaCaT keratinocytes, Human primary melanocytes); test: Induced pigmentation in keratinocyte-melanocyte co-cultures (DOPA staining, computerized image analysis); assay type: cell-based; details: three daily treatments; for Mean area: DOPA-stained relative pigmented area; for % increase: normalized to control
Description: The peptides Peptide 1 and Peptide 3 and various pigments were tested, alone or in combination, with keratinocyte-melanocyte cultures for their effect on cell pigmentation, using DOPA staining and computerized image analysis. The pigments that were tested were the pigmented natural extracts Bearberry extract from Alban Muller International (Vincennes, France) and Hedychium spicatum extract sold as Kapur Kachali from Amsar Private Limited (Indore, India), copper chloride from Sigma (St. Louis, Mo.) and the water-soluble melanin derivatives Melasyn-100™ from San-mar laboratories, Inc. (Elmsford, N.Y.) and MelanZe™ from Zylepsis (Ashford, Kent, United Kingdom). The pigments were tested at concentrations ranging from 0.0001%(W/V) to 1%(W/V) and the peptides were tested at 50 μM.
The assay was conducted in the following manner. Human HaCaT keratinocytes (Boukamp P., et al., J Cell Biol 106, 3, 761-771 (1988)) were maintained in Dulbecco's Modified Eagle's Medium (DMEM) containing 10% fetal bovine serum (FBS), 4.5 mg/ml glucose, 2 mM L-glutamine, 50 U/ml penicillin and 50 μg/ml streptomycin (Life Technologies, Gaithersburg, Md.). Cells were maintained at <80% confluency in 5% CO2 (v/v) and were used in experimental procedures up to culture passage 15. Human primary melanocytes (Clonetics, San Diego, Calif. or Cascade Biologics, Portland, Oreg.) were maintained according to manufacturer's instructions. To establish keratinocyte-melanocyte co-cultures, 6×10^4 melanocytes were plated in each well of a 24 well plate and maintained according to manufacturer's instructions.
Melanocytes were rinsed three times with melanocyte growth media without PMA and keratinocytes (6×10^4) were plated to establish the co-cultures in this media. Co-cultures were treated for three days with test peptides and pigments, and assayed for cell viability and pigment level on the forth day. Cell viability was assayed using alamarBlue™ (Acumed International, West Lake, Ohio) following manufacturer's instructions. No change in viability was observed following three daily treatments with all tested material. All in vitro experiments were performed in triplicates, and were repeated at least three times.
Following three daily treatments, the co-cultures were briefly fixed (10% buffered formalin from Fisher Scientific, 15 minutes), washed three times with Phosphate-buffered saline (PBS, from Life Technologies) and stained with L-3,4-Dihydroxyphenylalanine (DOPA, from Sigma, St. Louis, Mo.) 0.1% in PBS, for 5 hours at 37° C., followed by two PBS washes and formalin (10%, overnight) fixation. DOPA is a substrate for tyrosinase, therefore an increase in staining represents increased tyrosinase activity and pigment production. DOPA-stained monolayers were used for image analysis. All images were obtained and analyzed with Image Pro Plus 3.0 software (Media Cybernetics, Silver Spring, Md.). Parameters measured were surface area of stained material within melanocyte and keratinocytes and the total surface area of the cells in the culture, and the relative pigmented area was calculated. A value of 100% was assigned to untreated controls, and values of treatment groups were normalized to their relevant controls. In all experiments there was no difference between PBS-treated cells and untreated controls. Data are presented with standard deviation (SigmaPlot® 5.0, SPSS Science, Chicago, Ill.).
Forskolin (Sigma, St. Louis, Mo.), a known inducer of pigmentation, served as a positive control and a reference point. Forskolin was administered at 1% (W/V).

[2] = tested on: Dark skinned Yucatan microswine; test: Induced pigmentation in vivo, F&M-stained skin sections of topically treated swine; set-up: key: −1: Slight lightening; 0: No change; 1: Minimal increase in pigment deposition; 2: Increased pigment deposition; 3: Strong increase in pigment deposition, some increase in caps; 4: Strong increase in pigment deposition, strong increase in caps; details: topical twice a day, five days/week, eight or nine weeks; peptides 250 or 500 μM, pigments 1% or 5% (W/V), positive controls 1% (W/V); average of all sites of responsive swine
Description: Compositions of the present invention were tested for their ability to induce in vivo pigmentation in skin cells in the following experiment. Dark skinned Yucatan microswine (Charles River, Portland, Me.) were housed in appropriately sized cages in an environmentally controlled room with a 12-hour light-12-hour dark photoperiod and supplied with food and water ad libitum. Animal care was based on the “Guide for the Care and Use of Laboratory Animals”, NIH Publication No. 85-23. Twenty μl of test peptides were applied topically, twice a day, five days/week, for eight or nine weeks, on the dorsum of the swine. Treatments of individual swine were always arranged in a head to tail order on one side, and in a tail to head order on the other side of the animal. Biopsies were taken using standard techniques.
Sections from the skin biopsies were stained with Hematoxylin and Eosin (H&E), or with Fontana-Mason (F&M), using standard procedures (Sheenan D C, Hrapckak B B, eds., Theory and Practice of Histo-technology. p. 223, 277, The C.V. Mosby Co., St. Louis (1980)). F&M staining identifies silver nitrate reducing molecules. In skin, this non-specific stain identifies primarily melanin. At least three sections per biopsy were processed. Each experiment was repeated at least three times.
Swine were treated with either: the known skin darkening agent forskolin (Sigma) or with a Coleus forskoli extract (ATZ Naturals, Englewood Cliffs, N.J.) which contains forskolin, as a positive control at 1% (W/V); pigments at 1% or 5% (W/V); peptides of this invention at 250 μM or 500 μM; and combinations of such peptides at 250 μM or 500 μM with pigments at 1% (W/V). Pigments tested include pigmented natural extracts (i.e., Bearberry extract and Hedychium spicatum extract) and synthetic compounds (i.e., the soluble melanin compound Melasyn-100™). These test compounds were dissolved in ethanol: propylene glycol 70:30 (v/v). […]
F&M-stained histological skin sections were evaluated for the change in pigment deposition within the treated site. […]

[Cl][Cu][Cl] [CuCl2, copper chloride]
Mean area ([1]; pigment alone 0.001% (W/V)): 0.064 | % increase ([1]; pigment alone 0.001% (W/V)): 220%

C=C[C@@]1(C)CC(=O)[C@]2(O)[C@@]3(C)[C@@H](O)CCC(C)(C)[C@@H]3[C@H](O)[C@H](OC(C)=O)[C@@]2(C)O1 [Forskolin, reference compound]
Mean area ([1]; positive control 1% (W/V)): 0.067 | % increase ([1]; positive control 1% (W/V)): 231.0% | Score (change in pigment deposition) [2]: 1

H2-Leu-Ile-Gly-Arg-NH2 (H-LIGR-NH2) [Peptide 1]
Mean area ([1]; peptide alone 50 μM): 0.080 | % increase ([1]; peptide alone 50 μM): 279% | Score (change in pigment deposition) [2]: 1-2

H2-Ser-Leu-Ile-Gly-Arg-Leu-NH2 (H-SLIGRL-NH2) [Peptide 3]
Score (change in pigment deposition) [2]: 2-3

Source: patent US20020197281A1, “Composition cantaining a peptide and a pigment and the use thereof in darkening the skin” (priority 2001, published 2002)
